US8969554B2, “6-acyl-1,2,4-triazine-3,5-dione derivative and herbicides” (Kumiai Chemical Industry Co., Ltd., priority 2010, dated 2015)

Legend:
Type in all cases: in vivo
Indian millet [1] = assay: Herbicidal activity by field foliage treatment (Test example 3); design: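 index 0 to 10 in 10% steps of herbicidal effect with 10 meaning complete death and 0 below 10%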; settings: 1000 g effective component per hectare, day 14 after the treatment
Summary of the method: (§1)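 Herbicidal effect is rated on a scoring scale 14 days after treatment. Seedlings raised 2 weeks in field soil under glass receive an overall foliar spray of wettable powder diluted in water, giving 1000 g active component per hectare.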

A. retroflexus [2] = assay: as above; design: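 index 0 to 10 in 10% steps of herbicidal effect with 10 meaning complete death and 0 below 10%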; settings: 1000 g effective component per hectare, day 14 after the treatment
Summary of the method: as §1

foxtail = assay: Herbicidal activity by field soil treatment (Test example 2); settings: 1000 g effective component per hectare, day 21 after the treatment;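 further: index 0 to 10 in 10% steps of herbicidal effect with 10 meaning complete death and 0 below 10%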
Experimental: [table] Test for Determining Herbicidal Activity by Field Soil Treatment A 80 cm^2 wide plastic pot was filled with a field soil and seeds of each of Echinochloa crus-galli, foxtail, Indian millet, and A. retroflexus were sowed and then covered with soil. The wettable powder produced with reference to the Formulation example 1 was diluted water, and applied on the soil surface by using a small sprayer in an amount of 1000 liters per hectare so that the effective component is 1000 g per hectare. After that, the plants were cultivated in a greenhouse, and on day 21 after the treatment, evaluation was made by the criteria described in Table 72 for determining the herbicidal effects.

Setaria viridis = assay: Herbicidal activity by field foliage treatment (Test example 3); settings: 1000 g effective component per hectare, day 14 after the treatment;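 further: index 0 to 10 in 10% steps of herbicidal effect with 10 meaning complete death and 0 below 10%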
Summary of the method: (§2)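 Potted field-soil plants grown 2 weeks in a greenhouse were sprayed over the whole foliage with diluted wettable powder at 1000 L/ha, delivering 1000 g active ingredient per hectare. Herbicidal effect scored by visual criteria 14 days after treatment.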

Scirpus juncoides Rocxb. = assay: Herbicidal activity by paddy field soil treatment (Test Example 1); design: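 index 0 to 10 in 10% steps of herbicidal effect with 10 meaning complete death and 0 below 10%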; settings: applied on water surface, 1000 g of effective component per hectare, day 21 after the treatment
Summary of the method: (§3)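 Herbicidal effect is rated on a graded scale 21 days after treatment. Treatment: wettable powder diluted in water, applied onto the flood water (3 cm deep) of sown paddy-soil pots on the day after sowing, 1000 g active component per hectare, greenhouse cultivation.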

Echinochloa oryzicola = assay: as above; design: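 index 0 to 10 in 10% steps of herbicidal effect with 10 meaning complete death and 0 below 10%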; settings: 1000 g of effective component per hectare, evaluated on day 21 after the treatment, criteria of Table 72
Summary of the method: as §3

Monochoria vaginalis = assay: as above; design: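 index 0 to 10 in 10% steps of herbicidal effect with 10 meaning complete death and 0 below 10%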; settings: 1000 g of effective component per hectare, evaluated on day 21 after the treatment, criteria of Table 72
Summary of the method: as §3

Echinochloa crus-galli [3] = assay: Herbicidal activity by field soil treatment (Test example 2); design: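 index 0 to 10 in 10% steps of herbicidal effect with 10 meaning complete death and 0 below 10%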; settings: 1000 g effective component per hectare, day 21 after the treatment
Summary of the method: (§4)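 Herbicidal effect is rated by fixed criteria on day 21 post-treatment. Before that, pots of field soil holding freshly sown, soil-covered seeds receive a surface spray of diluted wettable powder (1000 g per hectare effective component, spray volume 1000 liters per hectare) and are kept in a greenhouse.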

Indian millet [4] = assay: as above; design: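 index 0 to 10 in 10% steps of herbicidal effect with 10 meaning complete death and 0 below 10%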; settings: 1000 g effective component per hectare, day 21 after the treatment
Summary of the method: as §4

A. retroflexus [5] = assay: as above; design: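 index 0 to 10 in 10% steps of herbicidal effect with 10 meaning complete death and 0 below 10%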; settings: 1000 g effective component per hectare, day 21 after the treatment
Summary of the method: as §4

Echinochloa crus-galli [6] = assay: Herbicidal activity by field foliage treatment (Test example 3); design: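 index 0 to 10 in 10% steps of herbicidal effect with 10 meaning complete death and 0 below 10%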; settings: 1000 g effective component per hectare, day 14 after the treatment
Summary of the method: as §2

Row | Compound | herbicidal effect index, Abutilon theophrasti (Indian millet [1]) | herbicidal effect index, Amaranthus retroflexus (A. retroflexus [2]) | herbicidal effect index, Setaria viridis (foxtail) | herbicidal effect index, Setaria viridis (Setaria viridis) | herbicidal effect index, S. juncoides Rocxb. (Scirpus juncoides Rocxb.) | Herbicidal effects index number, Echinochloa oryzicola (Echinochloa oryzicola) | Herbicidal effects index number, Monochoria vaginalis (Monochoria vaginalis) | herbicidal effect index, Echinochloa crus-galli (Echinochloa crus-galli [3]) | herbicidal effect index, Abutilon theophrasti (Indian millet [4]) | herbicidal effect index, Amaranthus retroflexus (A. retroflexus [5]) | herbicidal effect index, Echinochloa crus-galli (Echinochloa crus-galli [6])
1 | Cn1nc(C(=O)C2=C(O)CCCC2=O)c(=O)n(-c2cc(Cl)cc(Cl)c2)c1=O [I-82] | 10 | 10 | 9 | 10 | 10 | 8 | 10 | 9 | 9 | 10 | 10
2 | Cc1cccc(OC(F)(F)F)c1-n1c(=O)c(C(=O)C2=C(O)CCCC2=O)nn(C)c1=O [I-285] | 7 | 8 | 10 | 9 | 10 | 10 | 10 | 10 | 10 | 10 | 9
3 | Cn1nc(C(=O)C2=C(O)CCCC2=O)c(=O)n(-c2cc(F)cc(F)c2)c1=O [I-76] | 10 | 10 | 9 | 9 | 10 | 10 | 10 | 10 | 10 | 10 | 10
4 | Cn1nc(C(=O)C2=C(O)CCCC2=O)c(=O)n(-c2c(Cl)cccc2Cl)c1=O [I-86] | 10 | 10 | 9 | 9 | 10 | 10 | 10 | 10 | 9 | 10 | 9
5 | Cn1nc(C(=O)C2=C(O)CCCC2=O)c(=O)n(-c2cccc(F)c2)c1=O [I-55] | 10 | 10 | 10 | 10 | 10 | 10 | 10 | 10 | 10 | 10 | 10
6 | Cc1cncc(-n2c(=O)c(C(=O)C3=C(O)CCCC3=O)nn(C)c2=O)c1 [I-278] | 9 | 10 | 9 | 10 | 10 | 8 | 9 | 9 |  | 10 | 10
7 | CC(C)n1c(=O)c(C(=O)C2=C(O)CCCC2=O)nn(C)c1=O [I-4] | 9 | 9 | 9 | 9 | 10 | 9 | 9 | 9 | 9 | 10 | 9
8 | COc1ccc(Cl)cc1-n1c(=O)c(C(=O)C2=C(O)CCCC2=O)nn(C)c1=O [I-134] | 10 | 10 | 10 | 10 | 10 | 10 | 10 | 10 | 10 | 10 | 10
9 | Cn1nc(C(=O)C2=C(O)CCCC2=O)c(=O)n(-c2cc(Cl)ccc2Cl)c1=O [I-85] | 10 | 10 | 9 | 10 | 10 | 10 | 10 | 9 | 10 | 10 | 9
10 | Cc1ccc(F)c(-n2c(=O)c(C(=O)C3=C(O)CCCC3=O)nn(C)c2=O)c1 [I-109] | 9 | 9 | 6 | 7 | 10 | 10 | 10 | 9 | 10 | 10 | 10
11 | Cn1nc(C(=O)C2=C(O)CCCC2=O)c(=O)n(-c2ccc([N+](=O)[O-])cc2)c1=O [I-68] | 10 | 10 | 10 | 8 | 10 | 10 | 10 | 10 | 10 | 10 | 10
12 | COc1ccc(-n2c(=O)c(C(=O)C3=C(O)CCCC3=O)nn(C)c2=O)c(OC)c1OC [I-298] | 9 | 10 | 7 | 8 | 10 | 10 | 10 | 7 | 10 | 10 | 10
13 | Cn1nc(C(=O)C2=C(O)CCCC2=O)c(=O)n(C2CCCCC2)c1=O [I-19] | 10 | 10 | 8 | 10 | 10 | 10 | 10 | 8 |  | 8 | 10
